Values quoted from earlier work, collected in patent US20130331575A1, “Method for resolution of 4-((1R,3S)-6-chloro-3-phenyl-indan-1-yl)-1,2,2-trimethyl-piperazine and 1-((1R,3S)-6-chloro-3-phenyl-indan-1-yl)-3,3-dimethyl-piperazine” (priority 2011, published 2013).

Tests used:
[1] = molecular target: D2 (Homo sapiens, UniProt P14416); conditions: in vitro
[2] = tested on: D1 and D2; conditions: in vivo
[3] = molecular target: 5-HT2 (Homo sapiens, UniProt P28223)
[4] = tested on: α1 adrenoceptors
[5] = molecular target: D1 (Homo sapiens, UniProt P21728); conditions: in vitro
D1, sequence (P21728 whole entry): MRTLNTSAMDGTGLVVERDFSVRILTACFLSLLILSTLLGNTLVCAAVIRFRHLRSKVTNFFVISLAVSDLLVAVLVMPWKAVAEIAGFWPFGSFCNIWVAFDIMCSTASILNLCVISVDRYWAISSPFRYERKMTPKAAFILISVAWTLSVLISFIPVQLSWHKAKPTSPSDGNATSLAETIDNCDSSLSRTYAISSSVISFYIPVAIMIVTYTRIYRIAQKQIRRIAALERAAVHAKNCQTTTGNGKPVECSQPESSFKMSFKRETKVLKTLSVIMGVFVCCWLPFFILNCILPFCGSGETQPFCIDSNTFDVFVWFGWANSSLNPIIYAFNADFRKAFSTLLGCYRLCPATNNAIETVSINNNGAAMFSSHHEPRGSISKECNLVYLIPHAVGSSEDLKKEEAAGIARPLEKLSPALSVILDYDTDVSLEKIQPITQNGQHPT

D2, sequence (P14416 whole entry): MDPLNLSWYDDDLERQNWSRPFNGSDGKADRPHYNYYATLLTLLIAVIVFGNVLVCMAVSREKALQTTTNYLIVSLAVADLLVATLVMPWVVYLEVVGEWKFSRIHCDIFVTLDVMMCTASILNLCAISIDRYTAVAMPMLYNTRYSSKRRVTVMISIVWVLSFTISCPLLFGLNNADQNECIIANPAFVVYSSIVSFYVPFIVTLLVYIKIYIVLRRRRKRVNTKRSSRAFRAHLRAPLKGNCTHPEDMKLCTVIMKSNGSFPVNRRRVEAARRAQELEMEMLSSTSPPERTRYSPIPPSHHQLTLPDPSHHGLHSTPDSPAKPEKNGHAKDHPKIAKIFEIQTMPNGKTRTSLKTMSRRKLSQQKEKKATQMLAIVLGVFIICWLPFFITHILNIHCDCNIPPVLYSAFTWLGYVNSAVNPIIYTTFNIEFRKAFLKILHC
5-HT2, sequence (P28223 whole entry, species assumed): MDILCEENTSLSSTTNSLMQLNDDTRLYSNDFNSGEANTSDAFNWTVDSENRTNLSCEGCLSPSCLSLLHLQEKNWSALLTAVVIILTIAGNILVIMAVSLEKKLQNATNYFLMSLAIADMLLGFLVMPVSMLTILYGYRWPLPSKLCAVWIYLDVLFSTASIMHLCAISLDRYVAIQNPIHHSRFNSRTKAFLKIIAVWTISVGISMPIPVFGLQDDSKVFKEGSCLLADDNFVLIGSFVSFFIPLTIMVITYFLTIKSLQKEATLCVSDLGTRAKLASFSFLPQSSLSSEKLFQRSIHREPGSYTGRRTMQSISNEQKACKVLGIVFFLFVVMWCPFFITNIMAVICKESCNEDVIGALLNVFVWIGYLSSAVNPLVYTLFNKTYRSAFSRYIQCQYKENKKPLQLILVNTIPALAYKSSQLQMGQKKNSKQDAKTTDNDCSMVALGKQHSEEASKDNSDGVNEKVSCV

For CN1CCN([C@@H]2C[C@@H](c3ccccc3)c3ccc(Cl)cc32)CC1(C)C [Compound (I), 4-((1R,3S)-6-chloro-3-phenyl-indan-1-yl)-1,2,2-trimethyl-piperazine], the D2 antagonist potency [1] is listed as “potent”, the “relative potency as D1 and D2 antagonist” value [2] is listed as “equipotent as D1 and D2 antagonist” and the 5-HT2 antagonist potency [3] is listed as “potent 5-HT2 antagonist”. For the same compound, the “affinity for α1 adrenoceptors” value [4] was “high affinity”, the D1 antagonist potency [5] was “potent” and the “D1 versus D2 selectivity” value [5] was “some D1 selectivity”.
